One assay concerns KG-1a CD34+ cells. The experiment in a line: KG-1a-Luc CD34+ xenograft in NOD/SCID mice, bioluminescence. In kind it is in vivo. Here is the method: Six-week-old female NOD-SCID mice (obtained from the model animal research center of Nanjing University, Nanjing, China) were acclimated for 1 week and housed in groups of five. All animal studies were conducted under the guidelines approved by the Animal Care and Use Committee of the Nanjing University of Chinese Medicine (Nanjing, China). The mice were sublethally irradiated with 2.7 Gy before transplantation.
KG-1a cells tagged with a luciferase reporter gene (KG-1a-Luc) were obtained from Cobioer biotechnology Inc. (Nanjing, Jiangsu, China) and cultured in 90% IMDM supplemented with 10% FBS, 0.05 mM 2-Mercaptoethanol, and 1 μg/mL Puromycin, and grown at 37 °C in a 5% CO2 humidified incubator. CD34 positive cells were enriched (following the 2.3 method) and injected via the tail vein in a final volume of 0.2 mL PBS with 0.5% FBS. For analyzing the luciferase signal, 5 × 10^6 cells KG-1a-Luc cells were used for each recipient animal. Seven days after transplantation, mice with KG-1a-Luc implants were subjected to bioluminescent analysis based on the luciferase signal. Briefly, mice received D-luciferin phosphate solution (100 mg/kg) intravenously 10 min prior to imaging. They were then anesthetized with isoflurane inhalation and imaged using a Xenogen IVIS scanner (PerkinElmer, Waltham, MA, USA). The next day, mice showing successful implantations were randomly divided into the control, DMAPE low dose, DMAPE high dose, and Ara-C treatment groups (n = 5 in each group), which received daily i. g. saline buffer, DMAPE phosphate salt 25 mg/kg, DMAPE phosphate salt 50 mg/kg and Ara-C (50 mg/kg), respectively. The growth of KG-1a-Luc cells was monitored every week by their luciferase signal. Five weeks after the implantation, all mice were sacrificed and their livers, kidneys, and bone marrow were excised for ex vivo bioluminescent imaging. The bioluminescent signal intensity was all quantified using the Living Image software (version 4.2, Carliper Life Science, Inc., Hopkinton, MA, USA) and is presented as photons/second/cm^2/sr (sr denotes steradian).

Assay [1] addresses T1, TrxR1 without Sec498 residue (TrxR1 nSec) (Homo sapiens, UniProt Q16881).
T1 construct: protein fragment, without selenocysteine residue; purchased Abcam ab168011
T1 sequence (Q16881 1-497 isoform Q16881-5): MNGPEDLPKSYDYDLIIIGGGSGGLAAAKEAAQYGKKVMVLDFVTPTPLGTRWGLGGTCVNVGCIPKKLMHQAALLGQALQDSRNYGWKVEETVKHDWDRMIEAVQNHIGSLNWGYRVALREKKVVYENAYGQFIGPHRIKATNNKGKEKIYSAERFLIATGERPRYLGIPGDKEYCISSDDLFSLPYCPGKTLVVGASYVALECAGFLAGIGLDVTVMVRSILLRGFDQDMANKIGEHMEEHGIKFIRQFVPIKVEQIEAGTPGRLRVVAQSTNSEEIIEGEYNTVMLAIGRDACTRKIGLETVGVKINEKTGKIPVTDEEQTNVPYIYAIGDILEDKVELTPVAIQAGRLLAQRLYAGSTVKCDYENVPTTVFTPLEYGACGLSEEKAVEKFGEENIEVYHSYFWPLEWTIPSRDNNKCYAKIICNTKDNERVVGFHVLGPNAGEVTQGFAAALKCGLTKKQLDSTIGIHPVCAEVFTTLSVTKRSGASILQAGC
The experiment in a line: In vitro TrxR1 activity assay (DTNB reduction), Sec-missing enzyme. In kind it is biochemical. The note with it: Sec-missing enzyme 0.1 μM. Here is the method:
The in vitro TrxR1 activity assay was performed using the DTNB reduction assay. Briefly, 0.1 μM recombinant human TrxR1 or TrxR1 without Sec498 residue (TrxR1 nSec) protein was reduced with 100 μM NADPH in assay buffer (50 mM Tris-HCl, 1 mM EDTA, pH = 7.5) for 30 min at room temperature. The reduced proteins was then treated with the indicated concentrations of PepE (final concentrations of 0.25, 0.5, 1, 2, 4, 6 μM), respectively, and incubated for 1 h at 37 °C. A mixture of assay buffer solution (50 mM Tris-HCl, 1 mM EDTA, pH = 7.5) containing DTNB and NADPH was added then added, making the final concentrations of DTNB and NADPH 2 mM and 200 μM, respectively. The absorbance was monitored at 412 nm using the SpectraMax i3x microplate reader (Molecular Devices). The linear increase of absorbance during the initial 3 min was recorded for calculating the relative enzyme activity. The same amount of DMSO was added to the control experiments and the activity is expressed as the percentage of the control.

For the next assay, the target named is T2, recombinant human TrxR1 (Homo sapiens, UniProt Q16881).
T2 construct: purchased Abcam ab204206
T2 sequence (Q16881 1-499 isoform Q16881-5): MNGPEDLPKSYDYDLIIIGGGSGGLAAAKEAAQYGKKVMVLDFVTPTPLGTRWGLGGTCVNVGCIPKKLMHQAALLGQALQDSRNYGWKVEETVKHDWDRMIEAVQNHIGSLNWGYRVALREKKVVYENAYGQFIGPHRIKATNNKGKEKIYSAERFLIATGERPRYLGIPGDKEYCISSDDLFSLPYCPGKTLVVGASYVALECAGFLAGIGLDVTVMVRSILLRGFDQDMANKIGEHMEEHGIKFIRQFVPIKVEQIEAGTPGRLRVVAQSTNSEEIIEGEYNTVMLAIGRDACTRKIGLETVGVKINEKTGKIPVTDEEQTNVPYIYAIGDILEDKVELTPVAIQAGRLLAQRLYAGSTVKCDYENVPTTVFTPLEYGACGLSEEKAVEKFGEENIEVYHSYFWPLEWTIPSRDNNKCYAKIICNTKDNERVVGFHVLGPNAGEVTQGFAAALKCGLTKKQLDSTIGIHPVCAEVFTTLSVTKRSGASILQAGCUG
Put plainly: NADPH oxidative activity assay. The assay is classed as biochemical. To be noted: 5 μM, TrxR1 0.2 μM. On the procedure:
The NADPH oxidative activity by TrxR1 in the presence of PepE was performed according to the previous reports. Briefly, the recombinant human TrxR1 protein (0.2 μM) was incubated with either 5 μM of PepE or 5 μM of DNCB at room temperature in assay buffer (50 mM Tris-HCl, 1 mM EDTA, pH = 7.5), same amount of DMSO was used as negative control. NADPH was then added (final concentration was set at 200 μM) and the absorbance was monitored at 340 nm for 30 min using the SpectraMax i3x microplate reader (Molecular Devices), the molar extinction coefficient was set as 6200 M^−1cm^−1. The linear decrease in NADPH absorbance was used for calculating NADPH consumption rate and expressed as NADPH μM^−1min^−1enzyme μM^−1.

Consider two compounds from article PMC6434189, “Peperomin E and its orally bioavailable analog induce oxidative stress-mediated apoptosis of acute myeloid leukemia progenitor cells by targeting thioredoxin reductase” (Redox Biology, 2019).

What is called IC50 is the concentration needed to halve the response being measured. The low end stands for inhibition by little substance, the high end for a need for much substance.

Molecules are shown by their SMILES. A value given as a limit tells only on which side of the number the result lay.

`COc1cc(C(c2cc(OC)c3c(c2)OCO3)[C@@H]2COC(=O)[C@H]2CN(C)CCO)cc2c1OCO2` [DMAPE, (2S,3S)-6-Methyl (hydroxyethyl) amino-2,6-dihydropeperomin E]: in the assay on KG-1a CD34+ cells (25 mg/kg/d), the “growth and metastasis of AML CD34+ cells in NOD/SCID mice” value was “significantly suppressed”. Also, the “luciferase signal in the bone marrow” value in the assay with KG-1a CD34+ cells (50 mg/kg i.g. daily, week 5, ex vivo imaging) is “almost no luciferase signal was detected”. In the assay with KG-1a CD34+ cells (50 mg/kg i.g. daily, week 5, P < 0.001 kidneys, P < 0.01 livers), the “overall luciferase signal in the liver and kidney, saline vs treated” value is reported as “significantly stronger in the saline-treated group”. For the same compound, in the assay with KG-1a CD34+ cells (25 and 50 mg/kg i.g. daily, P < 0.05 at three weeks, P < 0.01 at five weeks), the “luciferase signal intensities compared to the saline-treated mice” value was “significantly weaker”.
In turn, `C=C1C(=O)OC[C@H]1C(c1cc(OC)c2c(c1)OCO2)c1cc(OC)c2c(c1)OCO2` [PepE, Peperomin E] came in with a concentration for half-maximal inhibition (IC50) in assay [1] greater than 8 µM. The “consumption of NADPH by TrxR1 relative to the control” value on recombinant human TrxR1 is roughly 7 fold.
